Experiments:
Test in all cases: spectrophotometric esterase kinetics, active-site titrated enzyme
Conditions in all cases: wild-type values collected contemporaneously, also reported in Teese et al. [32]
001f (CCE-001f) = system: T1, 001f (CCE-001f); assay type: biochemical, Helicoverpa armigera
T1 construct: gene CCE001f; untagged, baculovirus expressed in Sf9 cells; titrated active sites
From the text: spectrophotometric esterase kinetics, active-site titrated enzyme on 001f (CCE-001f)

001b (CCE-001b) = system: T2, 001b (CCE-001b); assay type: biochemical, Helicoverpa armigera
T2 construct: gene CCE001b; untagged, baculovirus expressed in Sf9 cells; titrated active sites
From the text: spectrophotometric esterase kinetics, active-site titrated enzyme on 001b (CCE-001b)

CC(=O)Oc1cccc2ccccc12 = assay type: biochemical, Lucilia cuprina
From the text: spectrophotometric esterase kinetics, active-site titrated enzyme on E3

| Compound | Km (001f (CCE-001f)) [µM] | Km (001b (CCE-001b)) [µM] | Km (CC(=O)Oc1cccc2ccccc12) | kcat (CC(=O)Oc1cccc2ccccc12) |
| --- | --- | --- | --- | --- |
| CC(=O)Oc1cccc2ccccc12 [1-naphthyl acetate] | 4 | 199 |  |  |
| E3 (Lucilia cuprina) |  |  | 88 (10) µM | 1399 (70) sec^-1 |
